According to patent US20040259806A1 (priority 2001, published 2004):

Experiments:
IL-2 = IL-2 production by Con A stimulated spleen cells (CTLL-2 assay); format: in vivo, mice; details: 4 days after therapy; Group 7 (0.1 ìg/kg ip) compared to Group 3 (isoniazid control); Con A stimulated spleen cells
Description: In RPMI-1640, spleen cells were diluted to a concentration of 10^7/ml with 10% fetal calf serum, 2 mM L-glutamine and 80 ìg/ml gentamycin. A 100 ìl cell suspension was added to each well of a 96-well culture plate and cytokine production was induced by Con A at a final concentration of 2.5 ìg/ml. A control well included RPMI-1640. For 24 hours, cells were incubated at 37° C. and humidified in 5% CO2. Following incubation, […] of supernatant was removed from each well and stored at −70° C.
In order to determine the IL-2 concentration in cell culture supernatants, the CTLL-2 IL-2 dependent cell line was used. CTLL-IL-2 cells were washed twice in RPMI-1640 and counted with a Goriaev hemocytometer. Supernatants were diluted in 96-well culture plates at dilutions of 1:5, 1:15, 1:45 and 1:135 in a volume of 100 il. IL-2 standard dilutions were also prepared. Cells were diluted to 2×10^5/ml in RPMI-1640 with 10% inactivated fetal calf serum, 2 mM L-glutamine, 80 ìg/ml gentamycin. The 100 ìl suspension was added to each well of the culture plate and incubated for 48 h at 37° C. in 5% CO2 humidity. Ten ìl of 5 i Ci/ml ^3H-thymidine was added to each well 16 h before the end of incubation. Following incubation, the cells were harvested on filters through the use of a semi-automated harvester and samples were counted in a liquid scintillation counter.

peritoneal macrophages = assay: Phagocytosis and killing of Saccharomyces cerevisiae by peritoneal macrophages of treated infected mice; format: in vivo
Description: In order to study phagocytosis, peritoneal macrophages were plated at a concentration of 10^6 cells per Petri dish and media including 10^7 Saccharomyces cerevisiae cells, opsonized by mice serum was added. Results were evaluated using the Mann-Whitney test. Phagocytic activity was calculated after determination of percentage of macrophages involved in phagocytes. The phagocytic index was determined by calculating the average number of yeast phagocytosed per one cell. Killing activity was resolved by the number of yeast digested by macrophages after 1.5 h of incubation. Finally, the killing index was determined as follows: [formula]

M. bovis 8 = format: in vivo, mice
spleen cells = assay: Spleen cell proliferation (Con A, LPS, tuberculin) from treated infected mice; format: in vivo; details: after 24 days; Group 3 the isoniazid control group
Description: Spleens from mice were harvested aseptically, homogenized in RPMI-1640 medium (Biolot, Russia) and filtered through two layers of sterile gauze. Erythrocytes were lysed in 0.83% percent ammonium chloride solution after centrifugation of the homogenate. Spleen cells were washed twice with RPMI-1640 with 2 mM L-glutamine and […] gentamycin (Sigma, St. Louis, Mo.), then counted using a Goriaev hemocytometer.
Spleen cells and thymic cells were isolated as described above. In vitro, thymic cells were diluted to 10^7/ml in RPMI-1640 with 2 mM L-glutamine, 80 ìg/ml gentamycin and 4% heat-inactivated fetal calf serum (Sigma, St. Louis, Mo.). Spleen cells were diluted to 3×10^6/ml in RPMI-1640 with 2 mM L-glutamine, 80 ìg/ml gentamycin and 20% inactivated fetal calf serum. 0.5 ìg/ml Concanavalin A (Con A, Sigma, St. Louis, Mo.) was used to stimulate thymic cell proliferation. For spleen cell proliferation, 0.5 ìg/ml Con A, 10 ìg/ml lipopolysaccharide (Sigma, St. Louis, Mo.), and 50 ìg/ml tuberculin purified protein derivative (PPD) were utilized. The assay was carried out in 96-well plates and cell cultures were incubated for 72 hours, or 96 hours if tuberculin was used, at 37° C. in humidified 5% CO2, then pulsed with 5 ìl Ci/ml ^3H-thymidine overnight (approximately 16 h) and harvested on filters using a semi-automated harvester (Titertek™, Flow Laboratories, Norway). Filters were dried and proliferation calculated by ^3H-thymidine incorporation by counting samples in a liquid scintillation counter (LKB 1217 Racketa, Wallace, Sweden). Data was expressed in impulses per minute.

[1] = 24 days after end of therapy, Group 7 (0.1 ìg/kg ip) versus Group 3 (isoniazid control)

NNC(=O)c1ccncc1 [isoniazid, isonicotinic acid hydrazide, reference compound]
IL-2 production (IL-2): 16.6±2.6 U/ml | phagocytic killing (peritoneal macrophages; 24 days after treatment, Group 3 (isoniazid), 178.0 in uninfected mice, p=0.05): 62.0 U | Phagocytosis (peritoneal macrophages; 24 days after treatment, isoniazid treatment group): returned to the level seen in uninfected mice | phagocytic activity (peritoneal macrophages; after 4 days, Group 7 (SCV-07 0.1 ìg/kg ip) compared to Group 3 (isoniazid control), p≦0.05, 64.2% in uninfected mice): 19.4% | killing (peritoneal macrophages; after 4 days, SCV-07 versus control, p≦0.05): 196.4 | phagocytic activity (peritoneal macrophages; after 17 days, Group 6 (1.0 ìg/kg ip, 10 injections) versus Group 3 (isoniazid control)): 49.8% | phagocytic index (peritoneal macrophages; after 17 days, Group 6 (1.0 ìg/kg ip, 10 injections) versus Group 3, p=0.05): 4.91 U | growth of M bovis cultured from spleens (M. bovis 8; [1]): 275±14.1 CFU | lung weight index (M. bovis 8; [1]): 1.07±0.23 | spleen weight index (M. bovis 8; [1]): 1.94±0.31 | increase in body weight (M. bovis 8; 24 days after end of therapy, Group 7 (SCV-07 0.1 ìg/kg ip, 5 injections, with isoniazid) versus Group 3 (isoniazid control)): 20.7% | lung damage index, difference to untreated mice (Group 2) (M. bovis 8; isoniazid alone (Group 3), 10 mg/kg subcutaneous, Day 28 of infection): no significant difference | spleen cell proliferative response (Con A and LPS) (spleen cells): remained low
